The test concerns the target T1, human IL-17A (Homo sapiens, UniProt Q16552).
T1 construct: purchased R&D Systems 7955-IL/CF
T1 sequence (Q16552 24-155): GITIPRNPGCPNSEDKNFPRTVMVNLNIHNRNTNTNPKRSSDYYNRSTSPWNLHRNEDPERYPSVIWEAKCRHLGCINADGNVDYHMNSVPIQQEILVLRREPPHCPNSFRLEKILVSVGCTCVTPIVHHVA
The test can be described thus: IL-17A AlphaLISA competition assay (block of IL-17A binding to its receptor IL-17RA). Conditions: mean IC50 (n≥2), block of IL-17A binding to IL-17RA. In a few lines: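 Human recombinant IL-17A (7.5 nM stock) pre-incubated 30 min at RT with compound, then IL-17RA/Fc (5 nM stock) added for 90 min; AlphaLISA read with anti-Fc acceptor beads, biotinylated anti-IL-17A antibody (5 nM) and streptavidin donor beads (3 h, dark). IC50 from 4-parameter logistic fit, normalised to DMSO and 4 μM reference inhibitor; n≥2.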
For orientation: Alpha assays give light when donor and acceptor beads are brought close together.

Results on 21 molecules are retold here after US20260200928A1, “THERAPEUTIC COMPOUNDS” (Sanofi, priority 2022, published 2026).

pIC50: −log10 of the molar value.

Consider `CC(C)n1nccc1C(=O)N[C@H](C(=O)Nc1cc(C(NC(=O)CC(F)(F)F)C2CC2)ccn1)C1CCC(F)(F)CC1` (stereo partly drawn) [Example 160, N-((1S)-2-((4-(cyclopropyl(3,3,3-trifluoropropanamido)methyl)pyridin-2-yl)amino)-1-(4,4-difluorocyclohexyl)-2-oxoethyl)-1-isopropyl-1H-pyrazole-5-carboxamide], for which the negative-log IC50 (pIC50) (usually the IC50 on a negative log10 scale, so that one unit is a factor of ten) is 6.74.

For the molecule `CCc1nocc1C(=O)N[C@H](C(=O)Nc1cc(C(NC(=O)CCC(F)(F)F)C2CC2)ccn1)C1CCC(F)(F)CC1` (stereo partly drawn) [Example 161, N-((1S)-2-((4-(cyclopropyl(4,4,4-trifluorobutanamido)methyl)pyridin-2-yl)amino)-1-(4,4-difluorocyclohexyl)-2-oxoethyl)-3-ethylisoxazole-4-carboxamide], the negative-log IC50 (pIC50) is 6.21.

In turn, `CC(C)n1nccc1C(=O)N[C@H](C(=O)Nc1cc([C@@H](C)NC(=O)CCC(F)(F)F)ccn1)C1CCC(F)(F)CC1` [Example 167, N—((S)-1-(4,4-difluorocyclohexyl)-2-oxo-2-((4-((R)-1-(4,4,4-trifluoro-butanamido)ethyl)pyridin-2-yl)amino)ethyl)-1-isopropyl-1H-pyrazole-5-carboxamide] had a pIC50 of 6.65.

Molecule `Cc1cn([C@H](C)c2ccnc(NC(=O)[C@@H](NC(=O)c3nonc3C3CC3)C3CCC(F)(F)CC3)c2)c(=O)[nH]1` [Example 168, 4-Cyclopropyl-N—((S)-1-(4,4-difluorocyclohexyl)-2-((4-((R)-1-(4-methyl-2-oxo-2,3-dihydro-1H-imidazol-1-yl)ethyl)pyridin-2-yl)amino)-2-oxoethyl)-1,2,5-oxadiazole-3-carboxamide] showed a pIC50 of 5.24.

`CCc1nocc1C(=O)N[C@H](C(=O)Nc1cc(C(C)(C)N2C[C@@H](C(F)(F)F)NC2=O)ccn1)C1CCC(F)(F)CC1` [Example 173, N-((S)-1-(4,4-difluorocyclohexyl)-2-oxo-2-((4-(2-((S)-2-oxo-4-(trifluoromethyl)imidazolidin-1-yl)propan-2-yl)pyridin-2-yl)amino)ethyl)-3-ethylisoxazole-4-carboxamide] showed a pIC50 of 6.73.

`CCn1nccc1C(=O)N[C@H](C(=O)Nc1cc(C(C)(C)N2C[C@@H](C(F)(F)F)NC2=O)ccn1)C1CCC(F)(F)CC1` [Example 174, N-((S)-1-(4,4-difluorocyclohexyl)-2-oxo-2-((4-(2-((S)-2-oxo-4-(trifluoromethyl)imidazolidin-1-yl)propan-2-yl)pyridin-2-yl)amino)ethyl)-1-ethyl-1H-pyrazole-5-carboxamide] had a pIC50 of 6.44.

`CCc1conc1C(=O)N[C@H](C(=O)Nc1cc([C@@H](COC)N2CC(F)(F)CNC2=O)ccn1)C1CCC(F)(F)CC1` [Example 177, N-((S)-2-((4-((S)-1-(5,5-difluoro-2-oxotetrahydropyrimidin-1(2H)-yl)-2-methoxyethyl)pyridin-2-yl)amino)-1-(4,4-difluorocyclohexyl)-2-oxoethyl)-4-ethylisoxazole-3-carboxamide] had a pIC50 of 7.62.

`CCc1nocc1C(=O)N[C@H](C(=O)Nc1cc([C@@H](COC)N2CC(F)(F)CNC2=O)ccn1)C1CCC(F)(F)CC1` [Example 178, N-((S)-2-((4-((S)-1-(5,5-difluoro-2-oxotetrahydropyrimidin-1(2H)-yl)-2-methoxyethyl)pyridin-2-yl)amino)-1-(4,4-difluorocyclohexyl)-2-oxoethyl)-3-ethylisoxazole-4-carboxamide] showed a pIC50 of 7.28.

`CCn1nccc1C(=O)N[C@H](C(=O)Nc1cc([C@@H](COC)N2CC(F)(F)CNC2=O)ccn1)C1CCC(F)(F)CC1` [Example 179, N-((S)-2-((4-((S)-1-(5,5-difluoro-2-oxotetrahydropyrimidin-1(2H)-yl)-2-methoxyethyl)pyridin-2-yl)amino)-1-(4,4-difluorocyclohexyl)-2-oxoethyl)-1-ethyl-1H-pyrazole-5-carboxamide] gave a pIC50 of 7.08.

On to `COC[C@H](c1ccnc(NC(=O)[C@@H](NC(=O)c2ccnn2C)C2CCC(F)(F)CC2)c1)N1CC(F)(F)CNC1=O` [Example 180, N-((S)-2-((4-((S)-1-(5,5-difluoro-2-oxotetrahydropyrimidin-1(2H)-yl)-2-methoxyethyl)pyridin-2-yl)amino)-1-(4,4-difluorocyclohexyl)-2-oxoethyl)-1-methyl-1H-pyrazole-5-carboxamide], for which the pIC50 is 7.14.

As to `COC[C@H](c1ccnc(NC(=O)[C@@H](NC(=O)c2ccnn2C(C)C)C2CCC(F)(F)CC2)c1)N1CC(F)(F)CNC1=O` [Example 181, N-((S)-2-((4-((S)-1-(5,5-difluoro-2-oxotetrahydropyrimidin-1(2H)-yl)-2-methoxyethyl)pyridin-2-yl)amino)-1-(4,4-difluorocyclohexyl)-2-oxoethyl)-1-isopropyl-1H-pyrazole-5-carboxamide], the pIC50 was 6.99.

`CCc1nonc1C(=O)N[C@H](C(=O)Nc1cc([C@@H](COC)N2CC(F)(F)CNC2=O)ccn1)C1CCC(F)(F)CC1` [Example 182, N-((S)-2-((4-((S)-1-(5,5-difluoro-2-oxotetrahydropyrimidin-1(2H)-yl)-2-methoxyethyl)pyridin-2-yl)amino)-1-(4,4-difluorocyclohexyl)-2-oxoethyl)-4-ethyl-1,2,5-oxadiazole-3-carboxamide] showed a pIC50 of 7.72.

Take `CCc1nonc1C(=O)N[C@H](C(=O)Nc1cc([C@@H](COC)N2C[C@@H](C(F)(F)F)NC2=O)ccn1)C1CCC(F)(F)CC1` [Example 187, N—((S)-1-(4,4-Difluorocyclohexyl)-2-((4-((S)-2-methoxy-1-((S)-2-oxo-4-(trifluoromethyl)imidazolidin-1-yl)ethyl)pyridin-2-yl)amino)-2-oxoethyl)-4-ethyl-1,2,5-oxadiazole-3-carboxamide]: the pIC50 is 7.77.

`COC[C@H](c1ccnc(NC(=O)[C@@H](NC(=O)c2nocc2C(C)C)C2CCC(F)(F)CC2)c1)N1C[C@@H](C(F)(F)F)NC1=O` [Example 188, N-((S)-1-(4,4-difluorocyclohexyl)-2-((4-((S)-2-methoxy-1-((S)-2-oxo-4-(trifluoromethyl)imidazolidin-1-yl)ethyl)pyridin-2-yl)amino)-2-oxoethyl)-4-isopropylisoxazole-3-carboxamide] had a pIC50 of 7.51.

As for `[2H]C([2H])([2H])C([2H])([2H])n1nccc1C(=O)N[C@H](C(=O)Nc1cc([C@@H](COC)N2C[C@@H](C(F)(F)F)NC2=O)ccn1)C1CCC(F)(F)CC1` [Example 189, N-((S)-1-(4,4-difluorocyclohexyl)-2-((4-((S)-2-methoxy-1-((S)-2-oxo-4-(trifluoromethyl)imidazolidin-1-yl)ethyl)pyridin-2-yl)amino)-2-oxoethyl)-1-(ethyl-d5)-1H-pyrazole-5-carboxamide], the pIC50 was 7.19.

In turn, `[2H]C([2H])([2H])C([2H])([2H])n1ccc(C(=O)N[C@H](C(=O)Nc2cc([C@@H](COC)N3C[C@@H](C(F)(F)F)NC3=O)ccn2)C2CCC(F)(F)CC2)n1` [Example 190, N-((S)-1-(4,4-difluorocyclohexyl)-2-((4-((S)-2-methoxy-1-((S)-2-oxo-4-(trifluoromethyl)imidazolidin-1-yl)ethyl)pyridin-2-yl)amino)-2-oxoethyl)-1-(ethyl-d5)-1H-pyrazole-3-carboxamide] gave a pIC50 of 6.09.

As to `COC[C@H](c1ccnc(NC(=O)[C@@H](NC(=O)c2nocc2C2CCC2)C2CCC(F)(F)CC2)c1)N1C[C@@H](C(F)(F)F)NC1=O` [Example 191, 4-cyclobutyl-N-((S)-1-(4,4-difluorocyclohexyl)-2-((4-((S)-2-methoxy-1-((S)-2-oxo-4-(trifluoromethyl)imidazolidin-1-yl)ethyl)pyridin-2-yl)amino)-2-oxoethyl)isoxazole-3-carboxamide], the pIC50 is 7.51.

Regarding `COC[C@H](c1ccnc(NC(=O)[C@@H](NC(=O)c2nocc2OCC(F)F)C2CCC(F)(F)CC2)c1)N1C[C@@H](C(F)(F)F)NC1=O` [Example 192, N-((S)-1-(4,4-difluorocyclohexyl)-2-((4-((S)-2-methoxy-1-((S)-2-oxo-4-(trifluoromethyl)imidazolidin-1-yl)ethyl)pyridin-2-yl)amino)-2-oxoethyl)-4-(2,2-difluoroethoxy)isoxazole-3-carboxamide], the pIC50 is 6.98.

As for `COC[C@H](c1ccnc(NC(=O)[C@@H](NC(=O)c2nonc2OCC(F)(F)F)C2CCC(F)(F)CC2)c1)N1C[C@@H](C(F)(F)F)NC1=O` [Example 193, N-((S)-1-(4,4-difluorocyclohexyl)-2-((4-((S)-2-methoxy-1-((S)-2-oxo-4-(trifluoromethyl)imidazolidin-1-yl)ethyl)pyridin-2-yl)amino)-2-oxoethyl)-4-(2,2,2-trifluoroethoxy)-1,2,5-oxadiazole-3-carboxamide], the pIC50 was 6.98.

`COC[C@H](c1ccnc(NC(=O)[C@@H](NC(=O)c2conc2C)C2CCC(F)(F)CC2)c1)N1C[C@@H](C(F)(F)F)NC1=O` [Example 194, N-((S)-1-(4,4-difluorocyclohexyl)-2-((4-((S)-2-methoxy-1-((S)-2-oxo-4-(trifluoromethyl)imidazolidin-1-yl)ethyl)pyridin-2-yl)amino)-2-oxoethyl)-3-methylisoxazole-4-carboxamide] showed a pIC50 of 7.17.

As to `COC[C@H](c1ccnc(NC(=O)[C@@H](NC(=O)c2nonc2C(C)C)C2CCC(F)(F)CC2)c1)N1C[C@@H](C(F)(F)F)NC1=O` [Example 195, N-((S)-1-(4,4-difluorocyclohexyl)-2-((4-((S)-2-methoxy-1-((S)-2-oxo-4-(trifluoromethyl)imidazolidin-1-yl)ethyl)pyridin-2-yl)amino)-2-oxoethyl)-4-isopropyl-1,2,5-oxadiazole-3-carboxamide], the pIC50 was 7.74.
